According to patent US10538230B2, “Thiol based resin system for removal of copper ions from hydraulic fluid” (THE BOEING COMPANY, priority 2015, dated 2020):

Test: Removal of Cu[II] ions from hydraulic fluid with thiol compounds of structure (2), ICP measurement
Details: Skydrol LD-4 with about 10 ppm copper (II) acetylacetate; for [Cu] T = 24 hr.: after 24 hr. contact with equimolar amount of thiol compound; for [Cu] T = 0 hr.: before addition of the thiol compound
Experimental: Copper (II) acetylacetate is added to a sample of hydraulic fluid (e.g., Skydrol® LD-4 (Eastman Chemical Co. (Kingsport, Tenn. [US])), though any phosphate ester hydraulic fluid is suitable) to provide a final concentration of about 10 ppm copper (II) acetylacetate in the fluid. The amount of copper (II) is measured in the solution using an Inductively Coupled Plasma Spectrometer (ICP). An equimolar amount of a thiol compound of structure (2) is added to a portion of the copper (II) acetate-hydraulic fluid solution and the solution-mixture is mixed using a vortex mixer for 1.5 minutes. The solution-mixture is allowed to stand for 24 hours and the copper (II) content present in the solution is measured using an Inductively Coupled Plasma Spectrometer (ICP). The amount of copper sequestered or complexed by the thiol compound is determined from the difference in the copper (II) concentrations before and after addition of the thiol compound.
Table 5 presents results of Copper (II) content in aliquots of hydraulic fluid (Skydrol® LD-4) containing copper (II) acetylacetate to a final concentration of about 10 ppm copper (II) acetylacetate and contacted with an equimolar amount of the indicated thiol compounds for 24 hours.

SMILES	[Cu] T = 24 hr. [ppm]	[Cu] T = 0 hr. [ppm]
Sc1nnc(S)s1 [I, 1,3,4-Thiadiazole-2,5-dithiol]	7.9	10.8
Sc1nnc(SSc2nnc(S)s2)s1 [II, 5,5′-Dithiobis(1,3,4-Thiadiazole-2(3H)-thione)]	6.4	11.1
